The target in data set [1] is T1, adiponectin receptor 1 (Mus musculus, UniProt Q91VH1).
T1 construct: a mouse adipocyte cell line 3T3-L1 was treated with siRNA of an adiponectin receptor 1 to be knocked down; endogenous in cells; host or cells: 3T3-L1 mouse adipocyte cell line
T1 sequence (Q91VH1 1-375): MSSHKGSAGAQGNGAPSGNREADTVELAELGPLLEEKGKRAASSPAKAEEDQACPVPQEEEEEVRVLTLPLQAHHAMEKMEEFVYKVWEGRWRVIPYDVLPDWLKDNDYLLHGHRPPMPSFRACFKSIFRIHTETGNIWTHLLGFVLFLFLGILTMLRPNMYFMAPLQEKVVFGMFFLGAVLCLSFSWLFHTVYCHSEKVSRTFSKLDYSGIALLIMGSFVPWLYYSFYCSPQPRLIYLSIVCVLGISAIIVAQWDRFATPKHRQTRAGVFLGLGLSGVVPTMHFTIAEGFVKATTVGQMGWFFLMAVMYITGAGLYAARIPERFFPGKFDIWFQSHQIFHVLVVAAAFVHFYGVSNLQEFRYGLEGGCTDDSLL
Briefly: AMPK phosphorylation activity after knockdown of adiponectin receptor 1 (siRNA, Western blot). The following applies: 3T3-L1, adiponectin receptor 1 siRNA, 10 μM, 24 hours. The class given is cell-based. The procedure:
In order to verify whether the peptide derivative of the present disclosure bound to an adiponectin receptor 1, a mouse adipocyte cell line 3T3-L1 was treated with siRNA of an adiponectin receptor 1 to be knocked down, and each of the peptide derivatives of the present disclosure was treated at 10 μM and cultured for 24 hours, and then cells were obtained. Thereafter, the proteins were extracted and it was confirmed by Western blot whether AMPK phosphorylation activity, which had been increased by the peptide derivatives, was lost.

Data set [2] relates to AMPK phosphorylation. As to the kind of experiment: AMPK phosphorylation activity in mouse adipocytes (Western blot). The class given is cell-based. The following applies: 3T3-L1, 10 μM, 24 hours; for AMPK phosphorylation activity (fold change): APN5 = 1.0. Here is the method:
There were confirmed effects of the peptide derivatives of the present disclosure on the expression and receptor activity of adiponectin in mouse adipocytes as a main adiponectin production site. A mouse adipocyte cell line 3T3-L1 was treated with each of the peptide derivatives of the present disclosure at a concentration of 10 μM and cultured for 24 hours, and then cells were obtained. Thereafter, the proteins were extracted and the effect on AMPK phosphorylation, which was responsible for the main downstream signaling of adiponectin, was confirmed by Western blot.
(In western blotting, separated proteins are transferred to a membrane and probed.)

The target in data set [3] is CYP2C19 (Homo sapiens, UniProt P33261). The following applies: microsomes, 10 µM. The procedure: (§1) Metabolites of each CYP isoenzyme indicator drug produced through the reaction were analyzed by LC-MS/MS using the Shimadzu Nexera XR system and TSQ vantage (Thermo).
Chain of CYP2C19 (P33261 whole entry): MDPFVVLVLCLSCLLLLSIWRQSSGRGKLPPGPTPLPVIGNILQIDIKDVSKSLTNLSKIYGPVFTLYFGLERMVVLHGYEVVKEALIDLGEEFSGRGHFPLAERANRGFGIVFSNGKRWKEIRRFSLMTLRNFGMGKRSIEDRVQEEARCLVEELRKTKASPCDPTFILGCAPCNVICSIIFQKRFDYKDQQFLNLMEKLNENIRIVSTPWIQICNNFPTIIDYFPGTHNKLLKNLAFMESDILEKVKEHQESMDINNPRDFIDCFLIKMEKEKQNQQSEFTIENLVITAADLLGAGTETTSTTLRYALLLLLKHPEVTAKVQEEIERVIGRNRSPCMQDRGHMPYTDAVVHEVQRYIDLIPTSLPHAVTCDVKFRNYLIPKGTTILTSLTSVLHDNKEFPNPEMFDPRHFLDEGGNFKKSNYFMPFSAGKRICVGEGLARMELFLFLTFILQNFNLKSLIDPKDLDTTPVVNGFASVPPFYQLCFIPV
The target of data set [4] is T2, CYP1A2 (Homo sapiens, UniProt P05177).
T2 sequence (P05177 1-516): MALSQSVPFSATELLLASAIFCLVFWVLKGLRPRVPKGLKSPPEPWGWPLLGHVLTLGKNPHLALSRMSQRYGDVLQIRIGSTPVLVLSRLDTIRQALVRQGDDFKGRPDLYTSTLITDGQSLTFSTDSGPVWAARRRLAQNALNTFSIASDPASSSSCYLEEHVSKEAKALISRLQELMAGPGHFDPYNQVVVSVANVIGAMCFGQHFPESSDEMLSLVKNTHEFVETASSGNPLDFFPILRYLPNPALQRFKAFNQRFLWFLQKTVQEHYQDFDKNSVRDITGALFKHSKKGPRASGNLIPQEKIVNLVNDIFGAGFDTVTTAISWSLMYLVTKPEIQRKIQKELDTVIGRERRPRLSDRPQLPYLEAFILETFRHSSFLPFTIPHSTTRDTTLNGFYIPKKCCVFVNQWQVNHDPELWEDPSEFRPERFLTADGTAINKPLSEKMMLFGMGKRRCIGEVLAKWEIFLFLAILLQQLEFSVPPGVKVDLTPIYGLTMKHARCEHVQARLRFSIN
The following applies: microsomes, 10 µM. The procedure:
as §1

Data set [5] concerns the target CYP3A4 (Homo sapiens, UniProt P08684). The following applies: microsomes, 10 µM. The procedure: as §1
Data set [6] has as its target CYP2D6 (Homo sapiens, UniProt P10635). The following applies: microsomes, 10 µM. The procedure: as §1
The target in data set [7] is CYP2C9 (Homo sapiens, UniProt P11712). The following applies: microsomes, 10 µM. The procedure:
as §1

A short description of data set [8]: Metabolic stability test, mouse liver microsomes. The class given is in vitro ADME. The following applies: NADPH, 37° C.; for remaining at 0.5 h, 1 μM: pH 7.4, mouse liver microsomes 0.5 mg/ml, 30 m. (In general: Microsomes from liver hold many membrane-bound enzymes, among them those of drug oxidation.)
A short description of data set [9]: Solubility test. The following applies: kinetic from dmso stock.
Data set [10] in a line: Metabolic stability test, rat liver microsomes. The class given is in vitro ADME. The following applies: NADPH, 37° C.; for remaining at 0.5 h, 1 μM: pH 7.4, rat liver microsomes 0.5 mg/ml, 30 m.
Data set [11] is described as follows: in vitro. The following applies: human, microsomes, pH 7.4.
Data set [12] in a line: Plasma stability test, rat plasma. The following applies: for remaining at 0.5 h, 1 μM / remaining at 2 h, 1 μM: rat, plasma.
A short description of data set [13]: in vitro. The following applies: human, plasma.
The nature of data set [14]: Plasma stability test, human plasma.
The nature of data set [15]: Metabolic stability test, human liver microsomes.
The nature of data set [16]: physchem. The following applies: pH 7.4, aqueous buffer, kinetic from dmso stock.
Setting [17] is: PRISMA HT buffer, pH 7.4, aqueous buffer.

≈ marks a conversion by molar mass, not a printed value. Square brackets hold non-standard residues; d marks the D form. Peptide text beside a SMILES is read from it. Phe(4-Cl) = N[CH](Cc1ccc(Cl)cc1)C(=O)O; Phe(4-F) = N[CH](Cc1ccc(F)cc1)C(=O)O

One may read the fraction remaining as what is left of the initial amount, in per cent. A low value points to a greater loss. Usually solubility (kinetic) stands for the concentration staying in solution when a stock, usually in DMSO, is diluted into the medium. Usually solubility stands for the concentration that dissolves in the medium under given conditions.

Chain of CYP3A4 (P08684 whole entry): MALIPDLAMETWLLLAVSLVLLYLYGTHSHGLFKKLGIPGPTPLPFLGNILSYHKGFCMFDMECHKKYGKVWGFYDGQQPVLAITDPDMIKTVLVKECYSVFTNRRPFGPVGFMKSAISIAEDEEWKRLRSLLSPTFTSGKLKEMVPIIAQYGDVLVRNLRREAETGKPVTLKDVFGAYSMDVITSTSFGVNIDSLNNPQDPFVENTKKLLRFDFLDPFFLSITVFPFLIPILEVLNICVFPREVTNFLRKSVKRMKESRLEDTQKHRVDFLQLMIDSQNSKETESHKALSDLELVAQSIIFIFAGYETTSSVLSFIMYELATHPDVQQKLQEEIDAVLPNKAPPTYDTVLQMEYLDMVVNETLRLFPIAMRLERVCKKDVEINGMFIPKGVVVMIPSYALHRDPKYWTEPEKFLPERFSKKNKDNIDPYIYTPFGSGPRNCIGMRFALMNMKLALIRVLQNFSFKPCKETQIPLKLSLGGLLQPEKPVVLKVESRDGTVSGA
Chain of CYP2D6 (P10635 whole entry): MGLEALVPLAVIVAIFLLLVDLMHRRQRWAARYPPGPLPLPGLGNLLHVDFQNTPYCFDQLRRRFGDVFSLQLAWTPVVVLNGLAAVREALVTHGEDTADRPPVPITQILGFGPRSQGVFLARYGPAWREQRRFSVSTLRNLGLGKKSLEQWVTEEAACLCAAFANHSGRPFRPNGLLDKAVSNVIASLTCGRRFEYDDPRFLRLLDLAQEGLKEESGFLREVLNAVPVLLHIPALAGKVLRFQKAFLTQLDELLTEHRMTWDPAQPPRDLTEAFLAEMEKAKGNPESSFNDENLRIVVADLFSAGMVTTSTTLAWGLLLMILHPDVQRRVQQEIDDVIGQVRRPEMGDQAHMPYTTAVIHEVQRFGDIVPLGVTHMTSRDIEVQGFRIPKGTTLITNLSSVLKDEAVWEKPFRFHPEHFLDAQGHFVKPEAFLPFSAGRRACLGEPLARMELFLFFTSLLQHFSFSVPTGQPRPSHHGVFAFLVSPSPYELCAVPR
Chain of CYP2C9 (P11712 whole entry): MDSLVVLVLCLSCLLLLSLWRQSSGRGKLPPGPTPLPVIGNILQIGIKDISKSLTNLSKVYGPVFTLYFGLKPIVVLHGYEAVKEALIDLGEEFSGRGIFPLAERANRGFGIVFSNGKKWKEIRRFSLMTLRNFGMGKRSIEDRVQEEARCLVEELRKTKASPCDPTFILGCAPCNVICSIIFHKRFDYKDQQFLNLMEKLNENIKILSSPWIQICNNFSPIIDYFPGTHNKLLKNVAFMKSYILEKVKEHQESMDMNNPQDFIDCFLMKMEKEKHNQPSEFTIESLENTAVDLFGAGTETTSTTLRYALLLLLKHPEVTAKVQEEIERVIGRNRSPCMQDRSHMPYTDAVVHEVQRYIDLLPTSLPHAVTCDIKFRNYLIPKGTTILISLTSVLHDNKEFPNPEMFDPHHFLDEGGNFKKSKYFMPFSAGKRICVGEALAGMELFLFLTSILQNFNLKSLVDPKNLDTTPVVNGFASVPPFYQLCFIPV

In the case of `CCC(C)C(NC(=O)CN)C(=O)NC(Cc1c[nH]c2ccccc12)C(=O)NC(Cc1ccc(O)cc1)C(=O)NC(Cc1ccccc1)C(N)=O` (centres unmarked) [DS-18, NH2-GIWYF-NH2] (H-GIWYF-NH2; configuration not given here), in [1], the “AMPK phosphorylation activity after knockdown of the adiponectin receptor 1” value is listed as “decreased the AMPK phosphorylation activity after knockdown of the adiponectin receptor 1”. In [2], the “AMPK phosphorylation activity (fold change)” value is 1.2 fold change and the “AMPK phosphorylation activity compared to APN5 (in words)” value was “significant effect of increasing AMPK phosphorylation activity”.

With `CC(C)C[C@H](NC(=O)CN)C(=O)N[C@@H](Cc1ccc(O)cc1)C(=O)N[C@@H](Cc1ccc(O)cc1)C(=O)N[C@@H](Cc1ccccc1)C(=O)O` [APN5, NH2-GLYYF-OH, reference compound], the “CYP inhibition (% of control activity) CYP2C19” value in [3] is 98.5 % of control activity. Besides, the “CYP inhibition (% of control activity) CYP1A2” value in data set [4] was 88.8 % of control activity. Moreover, in data set [5], the “CYP inhibition (% of control activity) CYP3A4” value is recorded as 82.9 % of control activity. The “CYP inhibition (% of control activity) CYP2D6” value in data set [6] is 92.3 % of control activity. Further, the “CYP inhibition (% of control activity) CYP2C9” value in data set [7] is on record as >100 % of control activity. Besides, the fraction remaining at 0.5 h, 1 μM is 9.5% in [8]; 1.3% in [10]; 1.7% in [11]; 83.1% in data set [12]; less than 1% in data set [13]. Also, the “AMPK phosphorylation activity (fold change)” value in [2] stood at 1.0 fold change. The solubility (kinetic) at 24 h in data set [9] (setting [17]) was 8.2 µg/mL (≈ 12.4 µM). The amount remaining at 2 h, 1 μM in data set [12] is 70.5%; in data set [13], less than 1%.

For `O=C(COc1ccc(C(=O)c2ccccc2)cc1)NC1CCN(Cc2ccccc2)CC1` [DS-43, adiporon, reference compound], the “CYP inhibition (% of control activity) CYP2C19” value in data set [3] was 66.0 % of control activity. Also, the “CYP inhibition (% of control activity) CYP3A4” value in [5] is on record as 90.3 % of control activity. In addition, in [6], the “CYP inhibition (% of control activity) CYP2D6” value is reported as 30.3 % of control activity. Further, the “Metabolic stability (% remaining) Mouse, 30 m” value in data set [8] (mouse liver microsomes 0.5 mg/ml, 1 μM) came to 3.1 % remaining. The “Plasma stability (% remaining) Human, 30 m” value in data set [14] (human plasma, 1 μM, 37° C., 30 m) is given as more than 100 % remaining. Besides, the “Plasma stability (% remaining) Human, 120 m” value in [14] (human plasma, 1 μM, 37° C., 120 m) is recorded as more than 100 % remaining. Besides, the “Metabolic stability (% remaining) Human, 30 m” value in data set [15] (human liver microsomes 0.5 mg/ml, 1 μM, NADPH, 37° C., 30 m) came to 54.9 % remaining. In [9] (PRISMA HT buffer (diluted 1:40 in distilled water), pH 7.4, pH 7.4, aqueous buffer), this molecule had a kinetic solubility at 24 h of 43.7 µg/mL (≈ 102 µM). Moreover, the “Metabolic stability (% remaining) Rat, 30 m” value in data set [10] (rat liver microsomes 0.5 mg/ml, 1 μM) was determined as 2.3 % remaining. Besides, the “Plasma stability (% remaining) Rat, 30 m” value in [12] (rat plasma, 1 μM, 37° C., 30 m) is listed as more than 100 % remaining. For the same molecule, the “Plasma stability (% remaining) Rat, 120 m” value in [12] (rat plasma, 1 μM, 37° C., 120 m) is more than 100 % remaining.

For `Cc1cc(CC(NC(=O)C(CC(=O)O)NC(=O)CN)C(=O)NC(Cc2ccc(O)cc2)C(=O)NC(Cc2ccccc2)C(N)=O)cc(C)c1O` (centres unmarked) [DS-41, NH2-GDY(Dmt)YF-NH2], the amount remaining at 0.5 h, 1 μM in data set [8] was 95.2%; in data set [14] (human, plasma), less than 1%; in data set [15] (human, microsomes, pH 7.4), 95.8%; in data set [10], 75.1%; in data set [12], more than 100%. Moreover, the amount remaining at 2 h, 1 μM in data set [14] (human, plasma) was less than 1%; in [12], 99.6%.

As to `O=C(O)Cc1ccccc1Nc1c(Cl)cccc1Cl` [Diclofenac], in [9] (setting [17]), the kinetic solubility at 24 h was found to be 157 µg/mL (≈ 530 µM).

As for `CC(C)CC(NC(=O)CN)C(=O)NC(Cc1ccc(F)cc1)C(=O)NC(Cc1ccc(O)cc1)C(=O)NC(Cc1ccccc1)C(N)=O` (centres unmarked) [DS-51, NH2-GLF(4-F)YF-NH2] (H-GL[Phe(4-F)]YF-NH2; configuration not given here), the “AMPK phosphorylation activity after knockdown of the adiponectin receptor 1” value in [1] is recorded as “decreased the AMPK phosphorylation activity after knockdown of the adiponectin receptor 1”. Moreover, in data set [2], the “AMPK phosphorylation activity (fold change)” value is on record as 1.3 fold change and the “AMPK phosphorylation activity compared to APN5 (in words)” value is listed as “significant effect of increasing AMPK phosphorylation activity”. For the same molecule, the solubility at 24 h in data set [16] was 136 µg/mL (≈ 204 µM).

`Nc1ccc(/N=N/c2ccccc2)c(N)n1` [Phenazopyridine] yielded a kinetic solubility at 24 h in data set [9] (setting [17]) of 23.8 µg/mL (≈ 111 µM).

In the case of `CC(C)CC(NC(=O)CN)C(=O)NC(Cc1ccc(Cl)cc1)C(=O)NC(Cc1ccc(O)cc1)C(=O)NC(Cc1ccccc1)C(N)=O` (centres unmarked) [DS-52, NH2-GLF(4-C1)YF-NH2] (H-GL[Phe(4-Cl)]YF-NH2; configuration not given here), the “AMPK phosphorylation activity after knockdown of the adiponectin receptor 1” value in [1] is reported as “decreased the AMPK phosphorylation activity after knockdown of the adiponectin receptor 1”. In data set [2], the “AMPK phosphorylation activity (fold change)” value is listed as 1.2 fold change and the “AMPK phosphorylation activity compared to APN5 (in words)” value is recorded as “significant effect of increasing AMPK phosphorylation activity”.

Consider `CC(C)CC(NC(=O)CN)C(=O)NC(Cc1c[nH]c2ccccc12)C(=O)NC(Cc1ccc(O)cc1)C(=O)NC(Cc1ccccc1)C(N)=O` (centres unmarked) [DS-17, NH2-GLWYF-NH2] (H-GLWYF-NH2; configuration not given here), for which the “AMPK phosphorylation activity after knockdown of the adiponectin receptor 1” value in data set [1] is listed as “decreased the AMPK phosphorylation activity after knockdown of the adiponectin receptor 1”. In addition, in data set [2], the “AMPK phosphorylation activity (fold change)” value was determined as 1.2 fold change and the “AMPK phosphorylation activity compared to APN5 (in words)” value is recorded as “significant effect of increasing AMPK phosphorylation activity”.

Source of the values: patent US20250049891A1, “NOVEL PEPTIDE DERIVATIVE DERIVED FROM ADIPONECTIN AND USE THEREOF” (SEOUL NATIONAL UNIVERSITY HOSPITAL, priority 2021, published 2025).
